# Experimental data published in US20250090510A1, “eIF4G1-eIF1 INHIBITORS AND USE THEREOF” (YEDA RESEARCH AND DEVELOPMENT CO. LTD., priority 2022, published 2025).
# Tested on: HEK293T cells
# Experiment: Ribo-seq and TI-seq translation efficiency analysis
# Format: cell-based, human
# Conditions: i14G1-10 20 μM, i14G1-12 10 μM; 3 h
# Method: FIGS. 4A-L: The effect eIF1-eIF4G1 inhibition by i14G1-10 or i14G1-12 on global translation is linked to start codon stringency. (4A) HEK293T cells were treated with DMSO, i14G1-10 (20 μM), and […] (10 μM) for 3 h and then ribosome foot printing libraries were prepared, sequenced and analyzed as described in the scheme. The presented graphs show meta-gene analysis of the distribution of normalized reads in the coding region (CDS) and 5′UTR of all analyzed genes in DMSO (black), i14G1-10 (blue), and i14G1-12 (red). (4B) Summary of the number of genes whose ribosomal occupancy was affected (fold change, […]) or unaffected in coding regions (CDS) (left) and 5′UTR (right) in i14G1-10 or i14G1-12 samples. […] (4E) Analysis of the nucleotide context of the annotated start codon of i14G1-10 and i14G1-12 differentially translated mRNAs using the STREME motif discovery algorithm. (4F) The translation efficiency of eIF1 in DMSO, i14G1-10 and i14G1-12 samples calculated from the Ribo-seq data. The weak AUG context of eIF1 is shown above. […] (4I) HEK293T cells were transfected with a firefly luciferase reporter gene driven by either by AUG or near cognate start codon, i.e., ACG, CUG, GUG, and UUG. The Renilla luciferase reporter gene was also co-transfected and served as a normalizing control. The near cognate start codon activities in DMSO control and i14G1-10 and i14G1-12 treated cells are presented as a percentage of AUG activity. The data are shown as mean±SEM, n=5. the asterisks denote statistically significant difference compared to DMSO, according to Student's t-tests (one-tailed, paired). *p<0.05; **p<0.01. (4J) Scatter plots showing the translation efficiencies correlations (R2 >0.9) of all analyzed genes between the two independent replicate experiments with DMSO (vehicle control) (top), i14G1-10 (middle), and i14G1-12 (bottom). (4K) Scatter plots showing the translation efficiencies correlations between 5′UTR and CDS (Pearson's r >0.5) of all analyzed genes of two independent replicate experiments with i14G1-10 (left) and i14G1-12 (right).
# Ribo-seq and TI-seq. HEK293T cells were grown in 10 cm culture dish until 80% confluence, and treated with DMSO, i14G1-10 ([…]), and i14G1-12 (10 μM). After 3 h, for TI-seq, cells were treated with 2 μg/ml harringtonine (Hrr) for 2 minutes followed by the addition of 100 μg/ml cycloheximide (CHX) for 5 minutes. For Ribo-seq cells were treated with 100 μg/ml cycloheximide (CHX) for 5 minutes. Thereafter, cells were lysed in polysome buffer. For both TI-seq and Ribo-seq, ribosome fractions were isolated using sucrose density centrifugation followed by Rnase I digestion. The total RNA was isolated using tri-reagent and used for high-throughput library preparation as described (Ingolia et al. 2012). The libraries were sequenced on the HiSeq2500 High-Output instrument (Illumina) for SR-60.
# RNA-seq libraries. Total RNA was isolated from the lysates used for TI-seq and Ribo-seq, using Bio Tri RNA reagent. Total RNA was then cleaned up using Oligo d(T)25 Magnetic Beads (NEB 514195) to isolate mRNA. RNA-seq libraries prepared using a derivation of MARS-seq, produce expression libraries with two replicates of each treatment. ˜25 ng RNA was taken for first Reverse transcription reaction using Illumina barcoded RT1 primer. Resultant barcoded cDNA samples were subsequently pooled according to Ct values of Housekeeping gene (GAPDH) (Quality control 1). Pooled cDNA was treated with Exonuclease I to remove excess primers followed by Second strand synthesis using NEB SSS module enzyme mix. After that, in vitro transcription was performed using NEB T7 RNA Pol mix to generate RNA which was fragmented and ligated to an adaptor consisting RD2 using T4 RNA ligase I (NEB) followed by a second Reverse transcription reaction. The library was amplified using Kappa Hifi ready mix. The RNA libraries were sequenced using a high-throughput 75 bp kit (Illumina FC404-2005) on NEXTseq 500 sequencer. […]
SMILES,ATF4 main ORF translation,number of genes with translational downregulation of CDS (≥1.7 fold) [genes],number of genes with translational upregulation of CDS [genes],number of genes with upregulated 5′UTR translation [genes],translation efficiency of endogenous eIF1
O=C(/C=C/Sc1ccc(C(F)(F)F)cn1)c1ccccc1 [i14G1-10],upregulated,320,255,806,upregulated
Cn1ccnc1S/C(=C/C=C(C#N)C#N)c1ccc(Cl)cc1 [i14G1-12],upregulated,874,547,1207,upregulated
